Measured values reported in patent US11013780B2, “Methods of treating female infertility” (Myovant Sciences GmbH, priority 2016, dated 2021).
Several values for one entry are separate records, joined by “and”; a condition that tells them apart may be missing. Identical values can stand only once. Like-named read-outs stand apart in the source and are kept apart here. Where a SMILES comes first, the peptide text is derived from it. [ ]: non-standard residue; d: D form. Arg(Me) = CNC(=N)NCCC[C@H](N)C(=O)O; Hyp = O=C(O)[C@@H]1C[C@@H](O)CN1; azaGly = NNC(=O)O

Assays:
[1] = Single dose PK, phase 1, healthy European men; type: in vivo, human; conditions: for Tmax / half-life / CL/F / AUC(0-inf) / AUC(0-t) / Cmax / Vd/F / CL renal / dose excreted: male, human; for Tmax / half-life / CL/F / AUC(0-inf) / AUC(0-t) / Cmax / Vd/F: plasma; for Vd/F: read-out: Vz/F; for CL renal: urine and plasma, read-out: CLr (renal clearance) (converted); for dose excreted: urine
Method: The study was conducted in France.
Eighty-two healthy European male subjects aged 50 to 76 years were enrolled into nine cohorts. 81/82 subjects (98.8%) were white and 1/82 subject (1.2%) was black/African American. Subjects enrolled in the first six cohorts received 0.001, 0.003, 0.01, 0.03, 0.1, or 0.3 mg of API-MA or placebo by single SC bolus. In the 0.3 mg cohort, 6 subjects received API-MA and two received placebo. In the remaining cohorts, 7 subjects received API-MA and three received placebo. Subjects enrolled in the seventh, eighth, and ninth cohorts received 1, 3, or 6 mg of API-MA or placebo by single 2-hour SC infusion. In these cohorts, 6 subjects received API-MA and two received placebo.
To measure urinary excretion of API-MA, urine specimens were collected at the following nominal times: from 12 hours prior to dosing until dosing and 0 to 6, 6 to 12, 12 to 24, 24 to 48 and 48 to 72 hours postdose.
To measure urinary excretion of API-MA, urine specimens were collected at the following nominal times: from 12 hours prior to dosing until dosing and 0 to 6, 6 to 12, 12 to 24, 24 to 48, and 48 to 72 hours after the start of the infusion.

[2] = PK across species (rats, dogs, monkeys), SC bioavailability; type: in vivo; conditions: rat, dog, monkey, plasma, read-out: Bioavailability after SC administration
Excerpt: The PK of API-MA was studied in rats, dogs, and monkeys.

serum LH and PSA = experiment: 1-month depot pharmacodynamics, prostate cancer patients; type: in vivo, human
Method: Nine patients with prostate cancer were enrolled in another study, three in each dose group (6, 12, and 24 mg). Patients received API-MA as a single 1-month depot injection that was intended to initiate both a high-burst release of API-MA and rapid stimulation of hypothalamic-pituitary-gonadal axis. Overall, 4 of 9 patients received concomitant GnRH therapy. Assessments of pharmacodynamics included LH concentrations and serum PSA concentrations. Results were grouped based on patients who were or were not receiving concomitant GnRH therapy.

dog KISS1R = molecular target: T1, dog KISS1R (Canis lupus familiaris, UniProt A0A8I3S0V2); experiment: Intracellular Ca2+ mobilization (fluorometric imaging plate reader), dog KISS1R; type: cell-based
T1 construct: expressed in transfected cells; host or cells: Chinese hamster ovary dihydrofolate reductase negative cells
T1 sequence (A0A8I3S0V2 1-382): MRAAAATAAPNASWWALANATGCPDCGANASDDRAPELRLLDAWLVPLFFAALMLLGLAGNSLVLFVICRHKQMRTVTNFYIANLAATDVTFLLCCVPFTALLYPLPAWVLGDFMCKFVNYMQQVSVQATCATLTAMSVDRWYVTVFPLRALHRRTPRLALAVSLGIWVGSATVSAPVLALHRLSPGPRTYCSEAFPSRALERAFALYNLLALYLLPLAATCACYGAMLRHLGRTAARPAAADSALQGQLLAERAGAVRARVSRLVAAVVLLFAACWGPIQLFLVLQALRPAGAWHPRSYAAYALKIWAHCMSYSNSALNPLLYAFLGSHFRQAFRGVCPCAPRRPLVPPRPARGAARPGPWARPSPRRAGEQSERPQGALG
Method: The effects of API-MA on intracellular Ca^2+ mobilization in KISS1R-expressing recombinant cells were evaluated by performing the fluorometric imaging plate reader assay.

[3] = dog, in vivo; cited from earlier work
[4] = single SC 0.001 mg, geometric mean
[5] = single SC 0.003 mg, geometric mean
[6] = single SC 0.01 mg, geometric mean
[7] = single SC 0.03 mg, geometric mean
[8] = single SC 0.1 mg, geometric mean
[9] = single SC 0.3 mg, geometric mean
[10] = subcutaneous, 2-hour INF 1 mg, geometric mean
[11] = subcutaneous, 2-hour INF 3 mg, geometric mean
[12] = subcutaneous, 2-hour INF 6 mg, geometric mean
[13] = single SC 0.001 mg, only 1 subject above LLOQ

## CC(=O)O.CNC(=N)NCCC[C@H](NC(=O)[C@H](CC(C)C)NC(=O)NNC(=O)[C@H](Cc1ccccc1)NC(=O)[C@@H](NC(=O)[C@H](CC(N)=O)NC(=O)[C@@H]1C[C@@H](O)CN1C(=O)[C@@H](Cc1ccc(O)cc1)NC(C)=O)[C@@H](C)O)C(=O)N[C@@H](Cc1c[nH]c2ccccc12)C(N)=O [API-MA, 2-(N-Acetyl-D-tyrosyl-trans-4-hydroxy-L-prolyl-Lasparaginyl-L-threonyl-L-phenylalanyl)-hydrazinocarbonyl-L-leucyl-Nω-methyl-L-arginyl-L-tryptophanamide monoacetate] (Ac-[dY][Hyp]NTF[azaGly]L[Arg(Me)]W-NH2)
[1]; 2-hour INF 1 mg, geometric mean (% CV)
  Ae(0-t) (urine): 29971.789 (27.97) ng
[1]; 2-hour INF 3 mg, geometric mean (% CV)
  Ae(0-t) (urine): 118170.544 (41.46) ng
[1]; 2-hour INF 6 mg, geometric mean (% CV)
  Ae(0-t) (urine): 322822.342 (10.34) ng
[1]; SC bolus, read-out: Median Tmax, range over cohorts
  Tmax: 0.5 to 0.75 h
[1]; sc, 0.001 mg, single SC 0.001 mg, read-out: T½ (median) (converted)
  half-life: 1.8 h
[1]; sc, 0.003 mg, single SC 0.003 mg, read-out: T½ (median) (converted)
  half-life: 1.43 h
[1]; sc, 0.01 mg, single SC 0.01 mg, read-out: T½ (median) (converted)
  half-life: 2.17 h
[1]; sc, 0.03 mg, single SC 0.03 mg, read-out: T½ (median) (converted)
  half-life: 2.61 h
[1]; sc, 0.1 mg, single SC 0.1 mg, read-out: T½ (median) (converted)
  half-life: 3.08 h
[1]; sc, 0.3 mg, single SC 0.3 mg, read-out: T½ (median) (converted)
  half-life: 3.45 h
[1]; sc, 2-hour INF 1 mg, geometric mean
  CL/F: 380 mL/min
[1]; sc, 2-hour INF 3 mg, geometric mean
  CL/F: 353 mL/min
[1]; sc, 2-hour INF 6 mg, geometric mean
  CL/F: 315 mL/min
[1]; [4]
  AUC(0-inf): 0.0475 ng·h/mL
  AUC(0-t): 0.0267 ng·h/mL
  CL/F: 351 mL/min
  Cmax: 0.0133 ng/mL
  Vd/F: 63.9 L
[1]; single SC 0.001 mg, read-out: Tmax (median)
  Tmax: 0.5 h
[1]; [5]
  AUC(0-inf): 0.122 ng·h/mL
  AUC(0-t): 0.101 ng·h/mL
  CL/F: 409 mL/min
  Cmax: 0.0424 ng/mL
  Vd/F: 55.9 L
  CL renal: 19700 mL/min
  Ae(0-t) (urine): 119.177 ng
[1]; single SC 0.003 mg, read-out: Tmax (median)
  Tmax: 0.75 h
[1]; [6]
  AUC(0-inf): 0.371 ng·h/mL
  AUC(0-t): 0.345 ng·h/mL
  CL/F: 449 mL/min
  Cmax: 0.14 ng/mL
  Vd/F: 85.6 L
  CL renal: 17900 mL/min
  Ae(0-t) (urine): 370.540 ng
[1]; single SC 0.01 mg, read-out: Tmax (median)
  Tmax: 0.5 h
[1]; [7]
  AUC(0-inf): 1.11 ng·h/mL
  AUC(0-t): 1.07 ng·h/mL
  CL/F: 451 mL/min
  Cmax: 0.34 ng/mL
  Vd/F: 96 L
  CL renal: 15600 mL/min
  Ae(0-t) (urine): 1003.082 ng
[1]; single SC 0.03 mg, read-out: Tmax (median)
  Tmax: 0.5 h
[1]; [8]
  AUC(0-inf): 3.94 ng·h/mL
  AUC(0-t): 3.89 ng·h/mL
  CL/F: 423 mL/min
  Cmax: 1.38 ng/mL
  Vd/F: 108 L
  CL renal: 17500 mL/min
  Ae(0-t) (urine): 4077.298 ng
[1]; single SC 0.1 mg, read-out: Tmax (median)
  Tmax: 0.5 h
[1]; [9]
  AUC(0-inf): 13.2 ng·h/mL
  AUC(0-t): 13.2 ng·h/mL
  CL/F: 378 mL/min
  Cmax: 4.35 ng/mL
  Vd/F: 114 L
  CL renal: 14300 mL/min
  Ae(0-t) (urine): 11326.187 ng
[1]; single SC 0.3 mg, read-out: Tmax (median)
  Tmax: 0.625 h
[1]; subcutaneous, 1 mg, 2-hour INF 1 mg, read-out: T1/2 (median) (converted)
  half-life: 3.64 h
[1]; subcutaneous, 3 mg, 2-hour INF 3 mg, read-out: T1/2 (median) (converted)
  half-life: 5.25 h
[1]; subcutaneous, 6 mg, 2-hour INF 6 mg, read-out: T1/2 (median) (converted)
  half-life: 5.26 h
[1]; subcutaneous, 6 mg, 3 and 6 mg, read-out: Mean T1/2 at the highest doses (converted)
  half-life: ~5.2 h
[1]; [10]
  AUC(0-inf): 43.8 ng·h/mL
  AUC(0-t): 43.7 ng·h/mL
  Cmax: 13.1 ng/mL
  Vd/F: 120 L
[1]; subcutaneous, 2-hour INF 1 mg, read-out: Tmax (median)
  Tmax: 2.25 h
[1]; [11]
  AUC(0-inf): 141 ng·h/mL
  AUC(0-t): 141 ng·h/mL
  Cmax: 39.4 ng/mL
  Vd/F: 150 L
[1]; subcutaneous, 2-hour INF 3 mg, read-out: Tmax (median)
  Tmax: 2.25 h
[1]; [12]
  AUC(0-inf): 318 ng·h/mL
  AUC(0-t): 318 ng·h/mL
  Cmax: 82.5 ng/mL
  Vd/F: 141 L
[1]; subcutaneous, 2-hour INF 6 mg, read-out: Tmax (median)
  Tmax: 2.25 h
[1]; [13]
  CL renal: 17500 mL/min
  Ae(0-t) (urine): 34.658 ng
  Fe (urine): 3.466%
[1]; subcutaneous, 2-hour INF 1 mg, geometric mean (% CV)
  CL renal: 11400 mL/min
[1]; subcutaneous, 2-hour INF 3 mg, geometric mean (% CV)
  CL renal: 13900 mL/min
[1]; subcutaneous, 2-hour INF 6 mg, geometric mean (% CV)
  CL renal: 16900 mL/min
[1]; sc, 0.003 to 6 mg, bolus and infusion, read-out: Fe, range over cohorts
  dose excreted: 3.09 to 5.4%
[1]; sc, 2-hour INF 1 mg, geometric mean (% CV), read-out: Fe (urine)
  dose excreted: 3%
[1]; sc, 2-hour INF 3 mg, geometric mean (% CV), read-out: Fe (urine)
  dose excreted: 3.94%
[1]; sc, 2-hour INF 6 mg, geometric mean (% CV), read-out: Fe (urine)
  dose excreted: 5.38%
[1]; single SC 0.001 mg, only 1 subject above LLOQ, read-out: Fe (urine)
  dose excreted: 3.47%
[1]; single SC 0.003 mg, geometric mean, read-out: Fe (urine)
  dose excreted: 3.97%
[1]; single SC 0.01 mg, geometric mean, read-out: Fe (urine)
  dose excreted: 3.71%
[1]; single SC 0.03 mg, geometric mean, read-out: Fe (urine)
  dose excreted: 3.34%
[1]; single SC 0.1 mg, geometric mean, read-out: Fe (urine)
  dose excreted: 4.08%
[1]; single SC 0.3 mg, geometric mean, read-out: Fe (urine)
  dose excreted: 3.77%
[2]
  bioavailability: > 55%
Serum LH and PSA; month 1, day 29, 6 mg dose group
  Greatest percent decrease from baseline in PSA, individual patients: 8% and 19%
Serum LH and PSA; month 1, day 29, 12 mg dose group
  Greatest percent decrease from baseline in PSA, individual patients: 25% and 62%
Serum LH and PSA; month 1, day 29, 24 mg dose group
  Greatest percent decrease from baseline in PSA, individual patients: 88% and 74% and 79%
Serum LH and PSA; month 2 day 29, a patient in the 24 mg dose group
  Greatest reduction in PSA: 91%
Dog KISS1R
  EC50: 2.01 nM
Dog KISS1R; dog KISS1R
  Ratio of EC50 of API-MA to kisspeptin (45-54): 1.2

## CNC(=N)NCCC[C@H](NC(=O)[C@H](CC(C)C)NC(=O)NNC(=O)[C@H](Cc1ccccc1)NC(=O)[C@@H](NC(=O)[C@H](CC(N)=O)NC(=O)[C@@H]1C[C@@H](O)CN1C(=O)[C@@H](Cc1ccc(O)cc1)NC(C)=O)[C@@H](C)O)C(=O)N[C@@H](Cc1c[nH]c2ccccc12)C(N)=O [Compound 1, 2-(N-Acetyl-D-tyrosyl-trans-4-hydroxy-L-prolyl-L-asparaginyl-L-threonyl-L-phenylalanyl)-hydrazinocarbonyl-L-leucyl-Nω-methyl-L-arginyl-L-tryptophanamide] (Ac-[dY][Hyp]NTF[azaGly]L[Arg(Me)]W-NH2)
[3]
  bioavailability: 92.4%
